Measured values from article PMC2943150 (Journal of medicinal chemistry, 2009).

Target: HIV-1 protease (Human immunodeficiency virus type 1 group M subtype B, UniProt P04585)
Assay: HIV-1 protease enzyme inhibition, assay protocol of Toth and Marshall
Type: biochemical

## COc1ccc2c(c1)OCCCC/C=C\CN(C[C@@H](O)[C@H](Cc1ccccc1)NC(=O)O[C@H]1CO[C@H]3OCC[C@H]31)S2(=O)=O [Inhibitor 14e]
  Ki: 0.017 ± 0.001 nM

## COc1ccc2c(c1)OCCCCCCCN(C[C@@H](O)[C@H](Cc1ccccc1)NC(=O)O[C@H]1CO[C@H]3OCC[C@H]31)S2(=O)=O [Inhibitor 15d]
  Ki: 0.08 ± 0.02 nM
